The results in this text go back to ChEMBL document CHEMBL1201862, “PubChem BioAssay data set” (2004).

Each structure is given as a SMILES string.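 Where inhibition never reached the appropriate level, the endpoint shown equals the highest concentration tested. Otherwise, values were interpolated linearly from a five-concentration, 48-hour dose response in 96-well plates. GI50 = concentration required for 50% inhibition of growth.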 Calls of active or inactive are those of the source. Cut-off read from the data, not from the text of the source: active = GI50 up to about 1.1 µM and inactive = higher.

Some test systems named below: A498; MOLT-4; SF-539; LXFL 529; SNB-75; EKVX; A549; HCT-15; HT-29; SK-MEL-28; KM12; UACC-62; HOP-92; HOP-62; SF-268; KM-20L2; DU-145; NCI/ADR-RES; PC-3.
Holding throughout (assay): inhibition of tumour cell growth, NCI panel, 48 h

Regarding `NC(CCCC(N)P(=O)(O)O)P(=O)(O)O` (configuration not stated), the GI50 in the experiment with A498, in the experiment with MOLT-4, in the experiment with SF-539, with LXFL 529, in the experiment on SNB-75 and in the experiment with EKVX was > 100 µM (inactive) each time. The GI50 was > 100 µM (inactive) in the experiment with A549; over 100 µM in the experiment on HCT-15; > 100 µM (inactive) with HT-29; > 100 µM (inactive) in the experiment with SK-MEL-28; > 100 µM (inactive) in the experiment on KM12; > 100 µM (inactive) with UACC-62. The GI50 with HOP-92 is 64.7 µM (inactive).
For `C=C=C[P+](c1ccccc1)(c1ccccc1)c1ccccc1`, the GI50 is 93.8 µM (inactive) in the experiment with A498; 53.1 µM (inactive) in the experiment with HOP-62; 2.6 µM (inactive) in the experiment with MOLT-4; 15.3 µM (inactive) in the experiment on SF-268; 14.8 µM (inactive) in the experiment on SF-539; 3.91 µM (inactive) in the experiment with LXFL 529. The GI50 with SNB-75 was 8.79 µM (inactive); with A549 it was 26.8 µM (inactive); in the experiment with HCT-15, 11.5 µM; in the experiment on SK-MEL-28, 21.4 µM (inactive); with KM12, 13 µM (inactive).
For `Brc1ccc(C[N+]23CN4CN(CN(C4)C2)C3)cc1`, the GI50 in the experiment on HOP-62 is > 100 µM (inactive); in the experiment on MOLT-4, 20.5 µM (inactive); with SF-268, 40.2 µM (inactive); in the experiment with SF-539, 40.3 µM (inactive); in the experiment with SNB-75, > 100 µM (inactive); with EKVX, > 100 µM (inactive). The GI50 in the experiment on A549 was 40.4 µM (inactive); in the experiment on HCT-15, 24.2 µM; with SK-MEL-28, 31.3 µM (inactive); in the experiment on KM12, > 100 µM (inactive); in the experiment with UACC-62, 14.8 µM (inactive); with KM-20L2, 31.1 µM (inactive).
With `COc1nc(=O)n(COC(CO)CN2C(=O)c3ccccc3C2=O)cc1Cc1cccc(OCc2ccccc2)c1` (configuration not stated), the GI50 in the experiment with MOLT-4 is 21.2 µM (inactive); with SF-539 it was 16.6 µM (inactive); in the experiment on LXFL 529, 30.1 µM (inactive); with SNB-75 it was 15.5 µM (inactive); in the experiment with EKVX it was 33.8 µM (inactive); in the experiment with A549, 23.5 µM (inactive). For the same compound, the GI50 in the experiment with HCT-15 was 28.2 µM; in the experiment with HT-29, 34 µM (inactive); in the experiment on SK-MEL-28 it was 17.2 µM (inactive); in the experiment with KM12, 28.2 µM (inactive); in the experiment with UACC-62 it was 14.6 µM (inactive); with KM-20L2 it was 26.2 µM (inactive). Moreover, the GI50 in the experiment with HOP-92 was 21 µM (inactive).
`CSCCCNC(=O)c1csc([C@@H](CSC)NC(=O)CCNC(=O)[C@@H](NC(=O)OCC(Br)(Br)Br)C(C)O)n1` (some centres not stated): the GI50 in the experiment on A498, in the experiment on HOP-62, with MOLT-4, in the experiment on SF-268, in the experiment on SF-539 and with SNB-75 was > 100 µM (inactive) each time. For the same compound, the GI50 in the experiment on EKVX was 75.5 µM (inactive); in the experiment with DU-145 it was > 100 µM (inactive); with NCI/ADR-RES, > 100 µM (inactive); in the experiment on A549 it was > 100 µM (inactive); with HCT-15, over 100 µM; in the experiment with HT-29 it was > 100 µM (inactive). The GI50 in the experiment on SK-MEL-28, in the experiment on KM12, with UACC-62, in the experiment on PC-3 and with HOP-92 was > 100 µM (inactive) in each case.
Turning to `CNC(=S)N/N=C(\C)c1ccc(OC)cc1O`, the GI50 with A498 was 95.7 µM (inactive); with HOP-62, > 100 µM (inactive); in the experiment on MOLT-4 it was 3.33 µM (inactive); in the experiment with SF-268 it was > 100 µM (inactive); in the experiment on SF-539 it was > 100 µM (inactive); in the experiment with SNB-75 it was > 100 µM (inactive). Moreover, the GI50 with EKVX was 82.6 µM (inactive); in the experiment with DU-145, > 100 µM (inactive); with NCI/ADR-RES, 28.8 µM (inactive); with A549 it was > 100 µM (inactive); in the experiment on HCT-15, 16 µM; in the experiment with HT-29 it was 0.337 µM (active). The GI50 in the experiment on SK-MEL-28, in the experiment with KM12, in the experiment with UACC-62, in the experiment with PC-3 and in the experiment with HOP-92 was > 100 µM (inactive) throughout.
On to `O=C1N/C(=N\N=C\c2ccccc2)C2(CCCCC2)O1`, for which the GI50 is > 100 µM (inactive) in the experiment with A498; 83.4 µM (inactive) with HOP-62; 39.3 µM (inactive) with MOLT-4; > 100 µM (inactive) in the experiment with SF-268; > 100 µM (inactive) in the experiment with SF-539; 20.5 µM (inactive) with SNB-75. Besides, the GI50 in the experiment with EKVX was > 100 µM (inactive); with DU-145, > 100 µM (inactive); in the experiment on NCI/ADR-RES it was 42.5 µM (inactive); in the experiment on A549 it was 54.5 µM (inactive); with HCT-15 it was 46.9 µM; in the experiment with HT-29, 78 µM (inactive). Moreover, the GI50 in the experiment on SK-MEL-28 is > 100 µM (inactive); in the experiment with KM12, > 100 µM (inactive); in the experiment with UACC-62, > 100 µM (inactive); in the experiment with PC-3, 80.4 µM (inactive); with HOP-92 it was > 100 µM (inactive).
On to `COC(=O)Nc1nc2cc(S(=O)(=O)N3CCOCC3)ccc2[nH]1`, for which the GI50 with A498 is > 100 µM (inactive); in the experiment on HOP-62 it was 91.8 µM (inactive); in the experiment with MOLT-4, 94.4 µM (inactive); in the experiment on SF-268, > 100 µM (inactive); in the experiment with SF-539 it was 12.4 µM (inactive); in the experiment on SNB-75 it was 69.8 µM (inactive). For the same compound, the GI50 in the experiment with EKVX is > 100 µM (inactive); with DU-145 it was > 100 µM (inactive); in the experiment with NCI/ADR-RES it was > 100 µM (inactive); in the experiment with A549, > 100 µM (inactive); in the experiment on HCT-15, over 100 µM; in the experiment on HT-29 it was > 100 µM (inactive). The GI50 in the experiment on SK-MEL-28 is 49.7 µM (inactive); with KM12 it was 65.5 µM (inactive); in the experiment on UACC-62, > 100 µM (inactive); in the experiment on PC-3, > 100 µM (inactive); in the experiment with HOP-92 it was > 100 µM (inactive).
Turning to `O=c1cc(-c2ccccc2)oc2ccc(Oc3nnnn3-c3ccccc3)cc12`, the GI50 in the experiment on A498 was 90.2 µM (inactive); with HOP-62 it was 29.4 µM (inactive); with MOLT-4 it was > 100 µM (inactive); in the experiment on SF-268, 11.8 µM (inactive); in the experiment on SF-539, 27.7 µM (inactive); with SNB-75, 47.3 µM (inactive). The GI50 in the experiment with EKVX is 12.1 µM (inactive); in the experiment with DU-145, > 100 µM (inactive); in the experiment on NCI/ADR-RES, 78.2 µM (inactive); with A549 it was > 90.8 µM (inactive); with HCT-15, over 100 µM; with HT-29, > 100 µM (inactive). Also, the GI50 with SK-MEL-28 was > 55.8 µM (inactive); in the experiment with KM12, > 100 µM (inactive); in the experiment with UACC-62, > 48.2 µM (inactive); with PC-3, > 100 µM (inactive); in the experiment with HOP-92, 20.1 µM (inactive).
As to `CN(CCNC(=O)c1cn(C)c2c1ccc1ccccc12)CCNC(=O)c1cn(C)c2c1ccc1ccccc12`, the GI50 in the experiment on A498 was 10.6 µM (inactive); in the experiment on HOP-62, 1.85 µM (inactive); with MOLT-4 it was 2.55 µM (inactive); in the experiment with SF-268 it was 2.69 µM (inactive); in the experiment with SF-539, 1.76 µM (inactive); with SNB-75, 1.79 µM (inactive). The GI50 was 2.37 µM (inactive) in the experiment on EKVX; 2.1 µM (inactive) in the experiment with DU-145; 7.82 µM (inactive) with NCI/ADR-RES; 3.59 µM (inactive) in the experiment on A549; 1.26 µM with HCT-15; 6.05 µM (inactive) with HT-29. The GI50 was 1.97 µM (inactive) with SK-MEL-28; 1.79 µM (inactive) in the experiment on KM12; 2.7 µM (inactive) in the experiment on UACC-62; 2.42 µM (inactive) with PC-3; 2.07 µM (inactive) in the experiment with HOP-92.
Consider `NC(=S)N/N=C1\CCCC1C(O)(C(F)(F)Cl)C(F)(F)Cl` (configuration not stated), for which the GI50 with A498, with HOP-62, in the experiment with MOLT-4, in the experiment with SF-268, in the experiment on SF-539 and in the experiment on SNB-75 was > 10 µM (inactive) throughout. In addition, the GI50 is > 10 µM (inactive) in the experiment on EKVX; > 10 µM (inactive) with DU-145; > 10 µM (inactive) in the experiment on NCI/ADR-RES; > 10 µM (inactive) with A549; over 10 µM in the experiment with HCT-15; > 10 µM (inactive) with HT-29. Besides, the GI50 in the experiment with SK-MEL-28 was > 10 µM (inactive); in the experiment with KM12, > 10 µM (inactive); in the experiment with UACC-62, 8.63 µM (inactive); in the experiment on PC-3, > 10 µM (inactive); in the experiment on HOP-92 it was > 10 µM (inactive).
Consider `C=C1CCC[C@@H](C)C(O)[C@@H]2OC(=O)C(=C)[C@@H]2C[C@@H](OC(C)=O)[C@@]2(C)CC[C@@H]1O2` (some centres not stated), for which the GI50 with A498 is 9.84 µM (inactive); in the experiment on HOP-62, 8.09 µM (inactive); in the experiment on MOLT-4, 4.84 µM (inactive); in the experiment on SF-268, 7.8 µM (inactive); with SF-539, 7.98 µM (inactive); in the experiment on SNB-75 it was 0.91 µM (active). In addition, the GI50 was 7.62 µM (inactive) in the experiment with EKVX; 7.66 µM (inactive) in the experiment on DU-145; 6.78 µM (inactive) in the experiment on NCI/ADR-RES; 15.8 µM (inactive) with A549; 3.78 µM with HCT-15; 8.47 µM (inactive) in the experiment on HT-29. Moreover, the GI50 with SK-MEL-28 was 7.98 µM (inactive); in the experiment with KM12 it was 7.76 µM (inactive); in the experiment with UACC-62 it was 4.53 µM (inactive); in the experiment on PC-3, 8.39 µM (inactive); in the experiment with HOP-92 it was 7.96 µM (inactive).
As to `NC(=O)CO/N=C1/C(=C2/C(=O)Nc3ccccc32)Nc2ccccc21`, the GI50 with A498 was > 100 µM (inactive); in the experiment with HOP-62 it was 22.6 µM (inactive); in the experiment on MOLT-4, 3.44 µM (inactive); in the experiment with SF-268, > 100 µM (inactive); with SF-539 it was > 100 µM (inactive); in the experiment with SNB-75 it was > 100 µM (inactive). Moreover, the GI50 was > 100 µM (inactive) in the experiment on EKVX; 1.67 µM (inactive) in the experiment with DU-145; > 100 µM (inactive) in the experiment on NCI/ADR-RES; 1.96 µM (inactive) in the experiment with A549; 2 µM with HCT-15; 2.12 µM (inactive) in the experiment with HT-29. The GI50 in the experiment on SK-MEL-28 was > 100 µM (inactive); with KM12, 0.247 µM (active); with UACC-62, 5.87 µM (inactive); in the experiment with PC-3 it was > 100 µM (inactive); in the experiment with HOP-92, > 100 µM (inactive).
